Test results: ChEMBL document CHEMBL1212812, “Multi-target spectral moment QSAR versus ANN for antiparasitic drugs against different parasite species” (Bioorg Med Chem, 2010)
Structures can show the parent of a compound that is named as a salt.

tested on: Leishmania infantum; assay: Antimicrobial activity against Leishmania infantum; format: functional, organism-based

SMILES	IC50
COc1ccc2nc3ccc(N(CCCCCCCCN(c4ccc5nc6ccc(OC)cc6c(N)c5c4)c4ccc5nc6ccc(OC)cc6c(N)c5c4)c4ccc5nc6ccc(OC)cc6c(N)c5c4)cc3c(N)c2c1	1000 nM
COc1ccc2nc3ccc(COC(=O)c4ccc(Cl)cc4)cc3c(Cl)c2c1	156000 nM
COC(=O)OCc1ccc2nc3ccc(OC)cc3c(N)c2c1	1000 nM
COC(=O)OCc1ccc2nc3ccc(OC)cc3c(Cl)c2c1	3000 nM
CCCC(=O)OCc1ccc2nc3ccc(OC)cc3c(Cl)c2c1	3000 nM
COc1ccc2nc3ccc(COC(=O)c4ccc(Cl)cc4)cc3c(N)c2c1	3000 nM
COc1ccc2nc3ccc(COC(=O)c4ccccc4)cc3c(N)c2c1	35000 nM
COc1ccc2nc3ccc(COC(=O)c4ccc(F)cc4)cc3c(N)c2c1	1000 nM
COc1ccc2nc3ccc(COC(=O)CC(C)C)cc3c(N)c2c1	2000 nM
COc1ccc2nc3ccc(NCCCCNc4ccc5nc6ccc(OC)cc6c(N)c5c4)cc3c(N)c2c1	5000 nM
COc1ccc2nc3cc(NCCCCCCCNc4ccc5nc6ccc(OC)cc6c(N)c5c4)ccc3c(N)c2c1	9000 nM

Now from value to compound:

IC50	SMILES
183000 nM	COc1ccc2nc3ccc(CO)cc3c(Cl)c2c1
137000 nM	COc1ccc2nc3ccc(COC(=O)c4ccccc4)cc3c(Cl)c2c1
125000 nM	COc1ccc(C(=O)OCc2ccc3nc4ccc(OC)cc4c(Cl)c3c2)cc1
36000 nM	COc1ccc2nc3ccc(COC(=O)CC(C)C)cc3c(Cl)c2c1
2000 nM	COc1ccc(C(=O)OCc2ccc3nc4ccc(OC)cc4c(N)c3c2)cc1
3000 nM	CCCC(=O)OCc1ccc2nc3ccc(OC)cc3c(N)c2c1
1000 nM	COc1ccc2nc3ccc(NCCCCCCNc4ccc5nc6ccc(OC)cc6c(N)c5c4)cc3c(N)c2c1
7000 nM	COc1ccc2nc3ccc(N(CCCCCCN(c4ccc5nc6ccc(OC)cc6c(N)c5c4)c4ccc5nc6ccc(OC)cc6c(N)c5c4)c4ccc5nc6ccc(OC)cc6c(N)c5c4)cc3c(N)c2c1

tested on: Plasmodium falciparum; assay: Antimicrobial activity against Plasmodium falciparum; format: functional, organism-based

SMILES	IC50
CN(C)[C@@H]1C(O)=C(C(N)=O)C(=O)[C@@]2(O)C(O)=C3C(=O)c4c(O)cccc4[C@@](C)(O)[C@H]3[C@H](O)[C@@H]12 [OXYTETRACYCLINE]	34 µM
COc1ccnc(C[S+]([O-])c2nc3cc(OC(F)F)ccc3[nH]2)c1OC (stereo not drawn) [PANTOPRAZOLE]	39 µM
CC(=O)[C@H]1CC[C@H]2[C@@H]3CCC4=CC(=O)CC[C@]4(C)[C@H]3CC[C@]12C [PROGESTERONE]	24 µM
CC(C)NC(=N)NC(=N)Nc1ccc(Cl)cc1 [PROGUANIL]	36 µM
CC(C)[C@H](CO)Nc1nc(Nc2cccc(Cl)c2)c2ncn(C(C)C)c2n1 [PURVALANOLA]	3 µM
CCc1nc(N)nc(N)c1-c1ccc(Cl)cc1 [PYRIMETHAMINE]	100 µM
C=C[C@H]1CN2CC[C@H]1C[C@@H]2[C@@H](O)c1ccnc2ccc(OC)cc12 [QUINIDINE]	24 µM
C=C[C@H]1CN2CC[C@H]1C[C@H]2[C@H](O)c1ccnc2ccc(OC)cc12 [QUININE]	54 µM
COCCCOc1ccnc(C[S+]([O-])c2nc3ccccc3[nH]2)c1C (stereo not drawn) [RABEPRAZOLE]	7 µM
CO[C@H]1/C=C/O[C@@]2(C)Oc3c(C)c(O)c4c(O)c(c(/C=N/N5CCN(C)CC5)c(O)c4c3C2=O)NC(=O)/C(C)=C\C=C\[C@H](C)[C@H](O)[C@@H](C)[C@@H](O)[C@@H](C)[C@H](OC(C)=O)[C@@H]1C [RIFAMPIN]	1 µM
CC[C@H]1OC(=O)[C@H](C)[C@@H](O[C@H]2C[C@@](C)(OC)[C@@H](O)[C@H](C)O2)[C@H](C)[C@@H](O[C@@H]2O[C@H](C)C[C@H](N(C)C)[C@H]2O)[C@](C)(O)C[C@@H](C)/C(=N\OCOCCOC)[C@H](C)[C@@H](O)[C@]1(C)O [ROXITHROMYCIN]	19 µM
CCCCCCCCCCOS(=O)(=O)O [SODIUM DECYL SULFATE]	460 µM
CCCCCCCCCCCCCCCCOS(=O)(=O)O [SODIUM HEXADECYL SULFATE]	145 µM
C=C[C@@H]1CN2CC[C@@]3(CNc4c3ccc(O)c4[C@H]3CCCN3C)[C@@H]2C[C@@H]1C[C@H]1c2[nH]c3ccccc3c2CCN1C [STRYCHNOPHYLLINE]	3 µM
COc1ncnc(NS(=O)(=O)c2ccc(N)cc2)c1OC [SULFADOXINE]	37 µM
N=C(N)NCCCCCCCCCCNC(=N)N [SYNTHALIN]	16 µM
CC(C)(C)NCc1cc(Nc2ccnc3cc(Cl)ccc23)cc(-c2ccc(Cl)cc2)c1O [TEBUQUINE]	53 µM
O=C1NC(=O)C(C(=O)Nc2ccc(Cl)cc2)c2ccccc21 (stereo not drawn) [TESICAM]	16 µM
C/C=C1/C[n+]2ccc3c([nH]c4ccccc43)c2C[C@@H]1C1=CN2c3ccccc3[C@]34CCN5C/C(=C/C)[C@H](C[C@H]53)[C@@H]([C@@H]1O)[C@H]24 [TETRADEHYDROLONGICAUDATINE]	1 µM
CC(C)=CC[C@@]1(C)SC(=O)C(C)=C1O [THIOLACTOMYCIN 2]	100 µM
CC1=C(O)[C@@](C)(CCC(C)C)SC1=O [THIOLACTOMYCIN 3]	259 µM
CC(C)=CCC/C(C)=C/C[C@@]1(C)SC(=O)C(C)=C1O [THIOLACTOMYCIN 4]	8 µM
CC(C)=CCCC(C)CC[C@@]1(C)SC(=O)C(C)=C1O (stereo partly drawn) [THIOLACTOMYCIN 5]	57 µM
CC(C)=CCC/C(C)=C/CC/C(C)=C/C[C@@]1(C)SC(=O)C(C)=C1O [THIOLACTOMYCIN 7]	8 µM
CC1=C(O)[C@@](C)(Cc2cccc(C(=O)c3ccccc3)c2)SC1=O [THIOLACTOMYCIN 8]	16 µM
C=C/C(C)=C/[C@@]1(C)SC(=O)C(C)=C1O [THIOLACTOMYCIN]	49 µM

More lines, now with the values ahead:

IC50	SMILES
105 µM	COc1cc(NC(C)CCCN)c2ncccc2c1 (stereo not drawn) [PRIMAQUINE]
64 µM	COc1ccc2nc3cc(Cl)ccc3c(Nc3cc(CN4CCCC4)c(O)c(CN4CCCC4)c3)c2n1 [PYRONARIDINE]
41 µM	CCN(CC)CCCC(C)Nc1c2ccc(Cl)cc2nc2ccc(OC)cc12 (stereo not drawn) [QUINACRINE]
21 µM	CN(C)[C@@H]1C(O)=C(C(=O)NCN2CCCC2)C(=O)[C@@]2(O)C(O)=C3C(=O)c4c(O)cccc4[C@@](C)(O)[C@H]3C[C@@H]12 [ROLITETRACYCLINE]
2 µM	C/C=C1/CN2CC[C@]34c5ccccc5N5C(=O)C([C@H]6C[C@]78c9ccccc9N9C(=O)C=C[C@@H]([C@H]97)[C@H]7C[C@@H]8N6C/C7=C/C)=C[C@H]([C@H]53)[C@H]1C[C@H]24 [SUNGUCINE]
147 µM	COc1cc(C)c2c(Oc3cccc(C(F)(F)F)c3)c(OC)cc(NC(C)CCCN)c2n1 (stereo not drawn) [TAFENOQUINE]
71 µM	CC1=C(O)[C@@](C)(CCC(C)CCCC(C)C)SC1=O (stereo partly drawn) [THIOLACTOMYCIN 6]
46 µM	CC1SC(=O)C(C)(C)C1=O (stereo not drawn) [THIOLACTOMYCIN 10]
30 µM	CC(C)=CCC/C(C)=C/CC1(C)C(=O)S[C@@H](C)C1=O (stereo partly drawn) [THIOLACTOMYCIN 11]
471 µM	CC1=C(O)SC(C)C1=O (stereo not drawn) [THIOLACTONE]
6 µM	CN1CCN(CCCN2c3ccccc3Sc3ccc(C(F)(F)F)cc32)CC1 [TRIFLUOPERAZINE]
2 µM	C/C=C1/CN2CCc3c([nH]c4ccccc34)[C@@H]2C[C@@H]1Cc1nccc2c1[nH]c1ccccc12 [USAMBARENSINE]
8 µM	CCCCCCOc1c(OC)cc(NC(C)CCCN)c2nccc(C)c12 (stereo not drawn) [WR-242511]
